Measured values as given in patent US10219728B2, “Analyte monitoring: stabilizer for subcutaneous glucose sensor with incorporated antiglycolytic agent” (Abbott Diabetes Care Inc., priority 2005, dated 2019).
Where two headings read alike, the source gives them in different places.

Tests used:
[1] = tested on: blood clot (red blood cells adjacent to the sensor); test: Glucose depletion at sensors inserted into blood clots, current response followed over time; assay type: cell-based; conditions: sensor with approximately 138 micrograms racemic D-/L-glyceraldehyde as thin outer coating, control sensors about 2 hour
Protocol: Glucose sensors are inserted into small silicon tubes containing the appropriate biological fluid. The tubes are maintained at about 37 degrees Celsius, and the glucose sensor is monitored.
Antiglycolytic sensors were prepared by modification of control sensors (FREESTYLE NAVIGATOR®) as follows. A coating solution was prepared from 250 mg/mL of a racemic mixture of L-glyceraldehyde and D-glyceraldehyde, and 150 mg/mL in polymer PC-1306 (Biocompatibles, PLC), the former suspended and the latter dissolved in ethanol. The resulting antiglycolytic sensors had approximately 138 micrograms of the racemic mixture of D- and L-glyceraldehydes incorporated as a thin, outer coating. Both these sensors and control sensors (no antiglycolytic agents added) were then inserted into blood clots, and the current response was followed over time.
The depletion is much delayed (up to about 12 hours) in the glyceraldehydes-containing sensors.

[2] = Antiglycolytic-modified sensor and control sensor implanted side by side in the arm of a non-diabetic subject; assay type: in vivo; conditions: FREESTYLE NAVIGATOR sensor with overcoat of about 55 micrograms L-glyceraldehyde, versus control sensor
Protocol: A further example of the use of an antiglycolytic sensor is provided by its use in an in vivo environment. In this example, a control sensor (FREESTYLE NAVIGATOR®) is inserted in the arm of a non-diabetic subject, adjacent to a similar sensor, which has been modified by the addition of an antiglycolytic agent, L-glyceraldehyde. A coating solution was made 200 mg/mL in L-glyceraldehyde, and 150 mg/mL in polymer PC-1306 (Biocompatibles, PLC), both dissolved in ethanol. The FREESTYLE NAVIGATOR® sensor was then modified by dipping twice into this coating solution, yielding an overcoat containing about 55 micrograms of L-glyceraldehyde. […] Glucose readings below 60 mg/dL are not anticipated in non-diabetic subjects, and are therefore considered to be anomalous, reflecting either (a) sensor malfunctions, or more likely (b) local inhomogeneities of glucose concentration (in the vicinity of a wound, for example) wherein the glucose concentration deviates substantially from the systemic value. Such deviations are observed with some regularity in control sensors, but are not observed in sensors modified with L-glyceraldehyde.

[3] = 50 mg/ml boric acid with 150 mg/ml L-glyceraldehyde and 150 mg/mL PC in outer membrane, stress at 56° C. for nine days, nonheparin blood
Protocol: An example of the use of an antiglycolytic sensor containing borate minerals, boric acid or any precursor thereof, is provided by its testing in an in vitro environment. 50 mg/ml boric acid was mixed with 150 mg/ml L-glyceraldehyde and 150 mg/mL PC in 100% ethanol. The sensor was dipped three times with a 10 minute interval. The sensor was then cured overnight, and subjected to stress at 56° C. for nine days and subsequently tested in nonheparin blood.

O=CC(O)CO (racemic) [glyceraldehydes, racemic mixture of L-glyceraldehyde and D-glyceraldehyde]
glucose depletion period [1]: up to 12 hours

O=C[C@@H](O)CO [L-glyceraldehyde]
large negative deviation in signal (values well below 60 mg/dL) during the night [2]: not observed

OB(O)O [boric acid]
high background current after stress [3]: significantly reduced | high background current after stress ([3]; listed as borate): reduced significantly
